Measured values taken from PubChem BioAssay (NCI).
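1) Cells in 96-well plates. 2) Compound, 48 h, 5 concentrations. 3) Linear interpolation between surrounding doses. 4) Unreached endpoint = highest concentration. TGI: concentration producing complete growth inhibition.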

Key:
Assay in all cases: DTP human tumour cell line panel, 48 h
[1] = system: A549 NSCLC
[2] = system: 786-0 renal
[3] = system: HCT-116 colon
[4] = system: SK-MEL-5 melanoma
[5] = system: DU-145 prostate
[6] = system: ACHN renal
[7] = system: IGROV1 ovarian
[8] = system: NCI-H522 lung
[9] = system: SNB-75 CNS

SMILES | TGI [1] [µM] | TGI [2] [µM] | TGI [3] [µM] | TGI [4] [µM] | TGI [5] [µM] | TGI [6] [µM] | TGI [7] [µM] | TGI [8] [µM] | TGI [9] [µM]
CC1=C(/C=C/C(C)=C/C=C/C(C)=C/C(=O)OCC2OC(n3cc(F)c(=O)[nH]c3=O)CC2OC(=O)/C=C(C)/C=C/C=C(C)/C=C/C2=C(C)CCCC2(C)C)C(C)(C)CCC1 (stereo unspecified) | > 48.5 | > 46.1 | 27.1 | 19.8 | > 46.3 | > 48.3 | 20 | 28.2 | > 100
c1ccc(N=C2c3ccccc3CN2c2ccccc2)cc1 | > 100 | > 100 | > 100 | > 100 | > 100 | > 100 | > 100 | > 100 | > 100
CC1C(c2ccc(F)cc2)c2cc3c(cc2OC1N1CCCC1)OCO3 (stereo unspecified) | > 100 | > 100 | > 100 | > 100 | > 100 | > 100 | > 100 | > 100 | > 100
Clc1ccc(N=C/C=C/Nc2ccc(Cl)cn2)nc1 | 29.1 | 18.3 | 25 | 27.5 | 31.6 | 25.1 | 28.9 | 28.4 | 25.7
CC(=O)/C(C=Nc1c(C)n(C)n(-c2ccccc2)c1=O)=C(/C)O | > 100 | > 100 | > 100 | > 100 | > 100 | > 100 | > 100 | > 100 | > 100
CCOC(=O)/C(C#N)=C/c1ccc2c(-c3c(OCC)ccc4cc(/C=C(\C#N)C(=O)OCC)ccc34)c(OCC)ccc2c1 | > 100 | > 100 | > 100 | > 100 | > 100 | > 100 | > 100 | > 100 | > 100
CC(C)(C)OC(=O)[N+](=N)C(=O)C1CCC(=O)N1C(=O)OCc1ccccc1 (stereo unspecified) | > 100 | > 100 | > 100 | > 100 | > 100 | > 100 | > 100 | > 100 | > 100
CC(=O)N=C(N=Nc1c(O)[nH]c2ccc(C)cc12)NC(C)=O | > 100 | > 100 | > 100 | > 100 | > 100 | > 100 | > 100 | > 100 | > 100
CCCCCC(CN1CCOCC1)C(=O)/C=C/c1ccccc1 (stereo unspecified) | 12 | 3.14 | 3.34 | 3.42 | – | – | – | – | 20
COc1cc(NS(C)(=O)=O)ccc1NCc1cnc2ccc3[nH]c(C)ccc3c12 | > 100 | > 100 | > 100 | > 100 | 89.1 | > 100 | > 100 | > 100 | 78.4
O=C(Cn1c(=O)ccn(C2OC(CO)C(O)C2F)c1=O)c1ccc(F)cc1 (stereo unspecified) | > 100 | > 100 | > 100 | > 100 | > 100 | > 100 | > 100 | > 100 | > 100
COc1c2c(c(OC)c3c1c(=O)c1ccccc1n3C)OCO2 | > 100 | > 100 | > 91.6 | 15.7 | > 100 | > 100 | > 100 | > 43.1 | > 100
CSC(SC)=C1CC(=O)Nc2ccccc2C1=O | > 100 | > 100 | > 100 | > 100 | > 100 | > 100 | > 100 | > 100 | –
C[C@]12CC[C@@H]3c4ccc(O)cc4CC[C@H]3[C@@H]1C/C(=C\c1ccc([N+](=O)[O-])cc1)C2=O | > 100 | > 100 | > 100 | > 100 | > 100 | > 100 | > 100 | 65.4 | > 100
CN(C1=NCCO1)c1cccc2ccccc12 | > 10 | – | > 10 | > 10 | > 10 | > 10 | > 10 | > 10 | > 10
O=c1[nH]c2ccc(C(F)(F)F)cc2nc1-c1ccccc1 | > 100 | > 100 | > 100 | > 100 | > 100 | > 100 | > 100 | > 100 | > 100
Brc1cccc(/C=C/CN2CCN(CCOC(c3ccccc3)c3ccccc3)CC2)c1 | 31.6 | 31.7 | 28.9 | 33.6 | 27.4 | 33.1 | 29.8 | 29.3 | 20.2
CNC(=S)/C(=N\Nc1nc[nH]c1C(N)=O)C(N)=S | > 100 | > 100 | > 100 | 81.3 | 34.9 | 61.8 | > 61 | > 91.7 | 71.9
O=c1c(O)c(-c2ccc(O)cc2O)oc2cc(O)cc(O)c12 | > 100 | > 100 | > 100 | > 100 | > 100 | > 100 | > 100 | – | > 100
NC(=O)NC(=O)c1cnccn1 | > 100 | > 100 | > 100 | – | > 100 | > 100 | – | > 100 | –
OC1(c2ccccc2)CC2CCC(C1)N2CCc1ccccc1 (stereo unspecified) | > 100 | > 100 | > 100 | 28.6 | > 100 | > 100 | > 100 | – | > 100
Cc1cc2nc3n[nH]c(N)c3nc2cc1C | > 100 | > 100 | > 100 | – | > 100 | > 100 | > 100 | > 100 | 87.8
c1ccc(COc2ccc(CC3SCCCS3)cc2)cc1 | > 100 | – | > 100 | > 100 | > 100 | > 100 | > 100 | > 100 | –
CN(C)CCCNc1c(O)c2c(c(O)c1Cl)C(=O)C=CC2=O | 3.52 | 3.25 | 5.1 | 2.82 | 3.27 | > 10 | 3.45 | – | > 10
